Measured values from patent US20210238169A1, “PROCESS FOR PREPARING A COMPOUND OF FORMULA (XIII)” (PULMOCIDE LIMITED, priority 2014, published 2021).

How the values were obtained:
[1] = system: Aspergillus fumigatus (ATCC 13073); assay: Macrophage and neutrophil accumulation into BALF of Aspergillus fumigatus infected mice; type: in vivo
Description: (§1) Aspergillus fumigatus (ATCC 13073 [strain: NIH 5233], American Type Culture Collection, Manassas, Va., USA) was grown on Malt agar (Nissui Pharmaceutical, Tokyo, Japan) plates for 6-7 days at RT (24±1° C.). Spores were aseptically dislodged from the agar plates and suspended in sterile distilled water with 0.05% Tween 80 and 0.1% agar. On the day of infection, spore counts were assessed by haemocytometer and the inoculum was adjusted to obtain a concentration of 1.67×10^8 spores mL^−1 of physiological saline.
(§2) On day 0, animals were infected with the spore suspension (35 μL intra-nasally).
(§3) Test compounds were administered intra-nasally ([…]) once daily, 30 min before infection on day 0 and then on days 1, 2 and 3 (representing prophylactic treatment) or on days 1, 2 and 3 only (representing therapeutic treatment). For extended prophylactic treatment, test compounds (35 μL of a suspension of 0.0032 or 0.016 mg/mL in physiological saline) were administered intra-nasally once daily for seven days; then 30 min before infection on day 0, and thereafter, either on days 1, 2 and 3 after infection, or on day 0 only. The effects of these treatment paradigms were compared with those obtained when treatment was restricted to one day and 30 min before inoculation and then on days 1, 2 and 3 post infection; or reduced still further to one day and 30 min before infection only.
(§4) Six hours after the last dose, animals were anesthetised, the trachea was cannulated and BALF was collected. The total number of alveolar cells was determined using a haemocytometer, and the numbers of alveolar macrophages and neutrophils were determined by FACS analysis (EPICS® ALTRA II, Beckman Coulter, Inc., Fullerton, Calif., USA) using anti-mouse MOMA2-FITC (macrophage) or anti-mouse 7/4 (neutrophil), respectively, as previously reported (Kimura et al., 2013). The levels of IFN-γ and IL-17 in BALF, and IL-6 and TNFα in serum were determined using Quantikine® mouse IFN-γ, IL-17, IL-6 or TNF-α ELISA kit (R&D systems, Inc., Minneapolis, Minn., USA) respectively. MDA, an oxidative stress marker, was assayed using OxiSelect® TBARS Assay Kits (MDA Quantitation; Cell Biolabs Inc, San Diego, Calif., USA). Aspergillus GM in serum was determination using Platelia GM-EIA kits (Bio-Rad Laboratories, Redmond, Wash., USA). Cut-off index was calculated by the formula: Cut-off index=OD in sample/OD in cut-off control provided in kit. For tissue fungal load assays, 100 mg of lung tissue was removed aseptically and homogenized in 0.2 mL of 0.1% agar in sterile distilled water. Serially diluted lung homogenates were plated on Malt agar plates (50 μL/plate), and incubated at 24±1° C. for 72 to 96 h. The colonies of A. fumigatus on each plate was counted and the fungal titre presented as CFU per gram of lung tissue.

[2] = system: Aspergillus fumigatus (ATCC 13073); assay: IL-6 and TNFα levels in serum of Aspergillus fumigatus infected mice; type: in vivo
Description: as §1, §2, §3, §4

[3] = system: Aspergillus fumigatus (ATCC 13073); assay: Extended prophylactic dosing: CFU in lung and GM in BALF and serum; type: in vivo, mice
Description: as §1, §2
Test compounds were administered intra-nasally (35 μL of a suspension of 0.08-2.00 mg/mL in physiological saline) once daily, 30 min before infection on day 0 and then on days 1, 2 and 3 (representing prophylactic treatment) or on days 1, 2 and 3 only (representing therapeutic treatment). For extended prophylactic treatment, test compounds (35 μL of a suspension of 0.0032 or 0.016 mg/mL in physiological saline) were administered intra-nasally once daily for seven days; then 30 min before infection on day 0, and thereafter, either on days 1, 2 and 3 after infection, or on day 0 only. The effects of these treatment paradigms were compared with those obtained when treatment was restricted to one day and 30 min before inoculation and then on days 1, 2 and 3 post infection; or reduced still further to one day and 30 min before infection only.
as §4

[4] = Prophylactic Treatment, 0.08 mg/mL intra-nasally
[5] = Prophylactic Treatment, 0.4 mg/mL intra-nasally
[6] = Prophylactic Treatment, 2 mg/mL intra-nasally
[7] = Therapeutic Treatment, 0.4 mg/mL intra-nasally
[8] = Therapeutic Treatment, 2 mg/mL intra-nasally
[9] = Therapeutic Treatment, 10 mg/mL intra-nasally
[10] = days dosed −1, 0, 16 μg/mL intra-nasally
[11] = days dosed −1 to +3, 3.2 μg/mL intra-nasally
[12] = days dosed −1 to +3, 16 μg/mL intra-nasally
[13] = days dosed −7 to 0, 16 μg/mL intra-nasally
[14] = days dosed −7 to +3, 3.2 μg/mL intra-nasally
[15] = days dosed −7 to +3, 16 μg/mL intra-nasally

With `Cc1cc(N2CCN(c3ccc(C(=O)Nc4ccc(F)cc4)cc3)CC2)ccc1OC[C@@H]1CO[C@@](Cn2cncn2)(c2ccc(F)cc2F)C1` [Compound (I), 4-(4-(4-(((3R,5R)-5-((1H-1,2,4-triazol-1-yl)methyl)-5-(2,4-difluorophenyl)tetrahydrofuran-3-yl)methoxy)-3-methylphenyl)piperazin-1-yl)-N-(4-fluorophenyl)benzamide] the “Macrophage cell numbers in BAL” value [1, 4] was 0.40 ± 0.15 × 10^5/mL, the “Macrophage cell numbers in BAL, % inhibition” value [1, 4] was 38% and the “Neutrophil cell numbers in BAL” value [1, 4] was 0.37 ± 0.04 × 10^5/mL. For the same compound, the “Neutrophil cell numbers in BAL, % inhibition” value [1, 4] was 24%, the “Macrophage cell numbers in BAL” value [1, 5] was 0.32 ± 0.07 × 10^5/mL and the “Macrophage cell numbers in BAL, % inhibition” value [1, 5] was 51%. For the same compound, the “Neutrophil cell numbers in BAL” value [1, 5] was 0.26 ± 0.12 × 10^5/mL, the “Neutrophil cell numbers in BAL, % inhibition” value [1, 5] was 47% and the “Macrophage cell numbers in BAL” value [1, 6] was 0.26 ± 0.05 × 10^5/mL. For the same compound, the “Macrophage cell numbers in BAL, % inhibition” value [1, 6] was 60%, the “Neutrophil cell numbers in BAL” value [1, 6] was 0.22 ± 0.04 × 10^5/mL and the “Neutrophil cell numbers in BAL, % inhibition” value [1, 6] was 55%. For the same compound, the “Macrophage cell numbers in BAL” value [1, 7] was 0.43 ± 0.05 × 10^5/mL, the “Macrophage cell numbers in BAL, % inhibition” value [1, 7] was 34% and the “Neutrophil cell numbers in BAL” value [1, 7] was 0.38 ± 0.04 × 10^5/mL. The “Neutrophil cell numbers in BAL, % inhibition” value [1, 7] was 22%, the “Macrophage cell numbers in BAL” value [1, 8] was 0.40 ± 0.11 × 10^5/mL and the “Macrophage cell numbers in BAL, % inhibition” value [1, 8] was 38%. The “Neutrophil cell numbers in BAL” value [1, 8] was 0.34 ± 0.05 × 10^5/mL, the “Neutrophil cell numbers in BAL, % inhibition” value [1, 8] was 31% and the “Macrophage cell numbers in BAL” value [1, 9] was 0.32 ± 0.07 × 10^5/mL. For the same compound, the “Macrophage cell numbers in BAL, % inhibition” value [1, 9] was 51%, the “Neutrophil cell numbers in BAL” value [1, 9] was 0.27 ± 0.08 × 10^5/mL and the “Neutrophil cell numbers in BAL, % inhibition” value [1, 9] was 45%. The “IL-6 concentration in serum” value [2, 4] was 159 ± 73.3 pg/mL, the “IL-6 in serum, % Inhibition” value [2, 4] was 44% and the “TNFα concentration in serum” value [2, 4] was 11.8 ± 5.9 pg/mL. The “TNFα in serum, % Inhibition” value [2, 4] was 54%, the “IL-6 concentration in serum” value [2, 5] was 86.3 ± 46.9 pg/mL and the “IL-6 in serum, % Inhibition” value [2, 5] was 70%. For the same compound, the “TNFα concentration in serum” value [2, 5] was 7.3 ± 3.5 pg/mL, the “TNFα in serum, % Inhibition” value [2, 5] was 71% and the “IL-6 concentration in serum” value [2, 6] was 44.5 ± 12.2 pg/mL. The “IL-6 in serum, % Inhibition” value [2, 6] was 84%, the “TNFα concentration in serum” value [2, 6] was 4.7 ± 0.4 pg/mL and the “TNFα in serum, % Inhibition” value [2, 6] was 82%. The “IL-6 concentration in serum” value [2, 7] was 51.7 ± 16.8 pg/mL, the “IL-6 in serum, % Inhibition” value [2, 7] was 82% and the “TNFα concentration in serum” value [2, 7] was 6.2 ± 0.5 pg/mL. For the same compound, the “TNFα in serum, % Inhibition” value [2, 7] was 76%, the “IL-6 concentration in serum” value [2, 8] was 44.2 ± 11.4 pg/mL and the “IL-6 in serum, % Inhibition” value [2, 8] was 84%. The “TNFα concentration in serum” value [2, 8] was 5.5 ± 0.7 pg/mL, the “TNFα in serum, % Inhibition” value [2, 8] was 79% and the “IL-6 concentration in serum” value [2, 9] was 35.9 ± 10.4 pg/mL. For the same compound, the “IL-6 in serum, % Inhibition” value [2, 9] was 87%, the “TNFα concentration in serum” value [2, 9] was 4.9 ± 0.6 pg/mL and the “TNFα in serum, % Inhibition” value [2, 9] was 81%. The CFU in lung [3, 10] was 13.1 ± 2.6 /mg of lung, the “CFU in lung, % inhibition” value [3, 10] was 62% and the “GM in BALF” value [3, 10] was 4.5 ± 0.50 COI. For the same compound, the “GM in BALF, % inhibition” value [3, 10] was 12%, the “GM in serum” value [3, 10] was 4.0 ± 0.88 COI and the “GM in serum, % inhibition” value [3, 10] was 7%. For the same compound, the CFU in lung [3, 11] was 9.5 ± 3.3 /mg of lung, the “CFU in lung, % inhibition” value [3, 11] was 73% and the “GM in BALF” value [3, 11] was 2.8 ± 0.71 COI. The “GM in BALF, % inhibition” value [3, 11] was 45%, the “GM in serum” value [3, 11] was 2.2 ± 0.69 COI and the “GM in serum, % inhibition” value [3, 11] was 49%. For the same compound, the CFU in lung [3, 12] was 6.1 ± 2.8 /mg of lung, the “CFU in lung, % inhibition” value [3, 12] was 82% and the “GM in BALF” value [3, 12] was 2.2 ± 0.61 COI. The “GM in BALF, % inhibition” value [3, 12] was 57%, the “GM in serum” value [3, 12] was 1.6 ± 0.41 COI and the “GM in serum, % inhibition” value [3, 12] was 63%. The CFU in lung [3, 13] was 6.7 ± 1.7 /mg of lung, the “CFU in lung, % inhibition” value [3, 13] was 81% and the “GM in BALF” value [3, 13] was 2.3 ± 0.52 COI. The “GM in BALF, % inhibition” value [3, 13] was 55%, the “GM in serum” value [3, 13] was 1.7 ± 0.59 COI and the “GM in serum, % inhibition” value [3, 13] was 60%. For the same compound, the CFU in lung [3, 14] was 8.3 ± 2.0 /mg of lung, the “CFU in lung, % inhibition” value [3, 14] was 76% and the “GM in BALF” value [3, 14] was 2.6 ± 0.36 COI. For the same compound, the “GM in BALF, % inhibition” value [3, 14] was 49%, the “GM in serum” value [3, 14] was 1.8 ± 0.43 COI and the “GM in serum, % inhibition” value [3, 14] was 58%. The CFU in lung [3, 15] was 5.0 ± 2.3 /mg of lung, the “CFU in lung, % inhibition” value [3, 15] was 86% and the “GM in BALF” value [3, 15] was 1.7 ± 0.39 COI. The “GM in BALF, % inhibition” value [3, 15] was 67%, the “GM in serum” value [3, 15] was 1.4 ± 0.20 COI and the “GM in serum, % inhibition” value [3, 15] was 67%.
